Source: patent US10350262B2, “MCJ agonists and uses therefor” (priority 2015, dated 2019)
Entries after “also recorded” stand apart in the source; their conditions may differ. No end group written: not given here.

Assays:
[1] = system: MCF7/ADR cells; experiment: Viable cell count of MCF7/ADR cells (Trypan blue); assay type: cell-based, human; details: doxorubicin 3 μM, 2 days
Procedure: (§1) FIG. 15A provides results of Western blot analysis for MCJ in MCF7 cells and MCF7/ADR (ADR) cells. Actin was used as loading control. […] Viable cells were counted 2 days later.
(§2) FIG. 16A-B provides graphs showing response to MCJ agonists. […] Cells were harvested 2 days later and viable cells were counted. […] Mice were harvested at day 4. The size of a tumor over time was determined by caliper measurements, and is represented as a percentage relative to the initial size prior to the treatment. p<0.05 as determined by a paired t-test.
(§3) Cell Culture. MCF7 and MCF7/ADR cells were a kind gift from Dr. Ken Cowan (National Cancer Institute, Bethesda, Md.). MCF7/siMCJ cells were generated by stable transfection with a plasmid expressing a shRNA for MCJ (siMCJ) as described in Hatle, K. M., et al., Mol Cell Biol 27, 2952-2966 (2007). All cells were maintained at 37 C, 5% CO2 in RPMI-1640 (Life technologies, Inc., Gaithersburg, Md.) containing 5% FBS.
(§4) Cell count. Cells were trypsinized, washed, and resuspended in medium. Number of viable cells was measured by counting using Trypan blue dye to exclude dead cells (visualized as blue).
(§5) Doxorubicin and peptides treatment in vitro. Doxorubicin (Sigma-Aldrich) was used at 3 μM final concentration. The three different peptides described in the examples (SEQ ID NO: 2, 18 or 6) were resuspended at 10 mM stock concentration in PBS. The peptides were used a different concentration as indicated for each example (1, 10, or 50 μM). Cells were plated the day prior the treatment (18-20 h prior to the treatment). For treatments with peptides only, peptides were added to the plates at the indicated concentrations, and after 2 or 3 days (as indicated for each example) cells were trypsinized, resuspended, and counted. For the treatment with doxorubicin and peptides, cells were pretreated with the corresponding peptide for 4 h prior to adding doxorubicin.
MCF7/ADR cells were incubated (using standard procedures) for three days in media alone or in media plus three different MCJ based polypeptides each at a concentration of 50 μM in media. The cells of set one were incubated in media and served as a control set. The cells of set two were incubated in media that included a 50 μM concentration of a MCJ polypeptide without a targeting agent polypeptide. The amino acid sequence of the N-MCJ polypeptide without a targeting agent polypeptide was […] (SEQ ID NO:2). The cells of set three were incubated in media that included a 50 μM concentration of a TAT-N-MCJ polypeptide. The amino acid sequence of the TAT-N-MCJ polypeptide was: […] (SEQ ID NO:18). […]

[2] = system: mammary tumors in MCJ KO MMTV mice; experiment: Doxorubicin and peptide treatment in vivo, mammary tumor size in MCJ KO MMTV mice; parameters: species or system mouse
Procedure: as §2
(§6) Mice. […] MCJ KO mice were crossed with the previously described MMTV-PyMT mice [see: Guy, C. T., et. al., Mol Cell Biol 12, 954-961 (1992)] to generate MCJ KO MMTV mice. Wildtype MMTV mice and MCJ KO MMTV mice were used for the experiments. All mice were housed under sterile conditions at the animal care facility at the University of Vermont. The procedures were approved by the University of Vermont Institutional Animal Care and Use Committee.
Doxorubicin and peptides treatment in vivo. MTV mice and MCJ KO MMTV mice were used to assay response to doxorubicin and MCJ peptides. The treatments were initiated around 2.5-3 months of age when the mammary tumor these mice develop reach 300 mm^3. […] Perpendicular tumor diameters were measured using a vernier scale caliper and tumor volume estimated using the formula for ellipsoid (width×high×length)/2. […]
The size of a tumor over time was determined by caliper measurements, and is represented as a percentage relative to the initial size prior to the treatment. p<0.05 as determined by a paired t-test. […]

[3] = system: MCF7 cells; experiment: Viable cell count of MCF7 cells (Trypan blue); assay type: cell-based, human; details: doxorubicin 3 μM
From the text: as §1, §3, §4, §5
MCF7 cells and MCF7/ADR cells were incubated (using standard procedures) for two days in media alone or in media that included different concentrations of the TAT-N-MCS-MTS polypeptide having the amino acid sequence set forth as: […]

[4] = system: mammary tumors in MMTV mice; experiment: Doxorubicin treatment in vivo, mammary tumor size in MMTV mice; parameters: species or system mouse; details: doxorubicin 2 mg/Kg i.p. every other day for two weeks, n=4
From the text: as §6
Doxorubicin and peptides treatment in vivo. MTV mice and MCJ KO MMTV mice were used to assay response to doxorubicin and MCJ peptides. The treatments were initiated around 2.5-3 months of age when the mammary tumor these mice develop reach 300 mm^3. Doxorubicin was administered intreperitoneal in PBS (100 μl per mouse) at a dose of 2 mg/Kg. TAT-N-MCJ-mts peptide (SEQ ID NO: 6) was administered at the time of doxorubicin by a subcutaneous injection in PBS (100 μl per mouse) at a dose of 10 mg/Kg. Administrations of doxorubicin and peptide were performed every other day for the indicated period of time. Perpendicular tumor diameters were measured using a vernier scale caliper and tumor volume estimated using the formula for ellipsoid (width×high×length)/2. […]
The size of a tumor over time was determined by caliper measurements, and is represented as a percentage relative to the initial size prior to the treatment. p<0.05 as determined by a paired t-test.

[5] = mouse
Procedure: MCF7/ADR cells were treated with doxorubicin, TAT-N-MCJ-mts peptide alone or in combination. […] Thus, at lower doses, MCJ agonists could overcome chemo-resistance of breast cancer cells in vitro. A study was also performed that tested the effect of the TAT-N-MCJ-mts peptide in combination with chemotherapy in vivo using the MMTV mammary tumor mouse model. […] Therefore MCJ KO MMTV mice were treated with doxorubicin alone or doxorubicin and the TAT-N-MCJ-mts peptide and followed tumor size.

| Molecule | expansion of cells (viable cells) [1] | tumor size over time ([2]; doxorubicin 2 mg/Kg i.p. every other day for two weeks, n=4) | tumor size (percentage relative to initial size) ([2]; doxorubicin alone 2 mg/Kg i.p. at day 0, 2 and 3, harvested day 4, n=3) | effect on viable cells ([3]; 2 days) | cell death ([3]; vs media alone) | tumor size over time [4] | toxicity in vivo (abnormality in treated mice) [5] |
| --- | --- | --- | --- | --- | --- | --- | --- |
| COc1cccc2c1C(=O)c1c(O)c3c(c(O)c1C2=O)C[C@@](O)(C(=O)CO)C[C@@H]3O[C@H]1C[C@H](N)[C@H](O)[C@H](C)O1 [doxorubicin] | no effect on the expansion of MCF7/ADR cells | continued growing or did not shrink; also recorded: less reduction in tumor size; also recorded: did not decrease, and continued to increase over time | continued growing | sensitive to doxorubicin | significant level of cell death | The size of the tumors in MMTV-Py mice was reduced; also recorded: tumor size in MMTV mice decreased over time | – |
| YGKKRRQRRGMAARGVIAPVGESLRYAEYLGTRTWVPKGLKSP [TAT-N-MCJ-MTS] | – | – | – | – | – | – | no obvious abnormality was observed |
